How the values were obtained:
HEK293T cells = test: In vitro Luc-mRNA transfection, luciferase luminescence expression in HEK293T cells; format: cell-based, human; set-up: unit not given here; details: Table 16; HEK 293T cells, 125 ng/well, n=3
Method in brief: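 HEK293T cells were transfected with nucleoside-modified firefly luciferase mRNA at 125 ng/well delivered in the test particles. TransIT and MC3-based LNPs at equal mRNA dose served as comparators. After 24 h (18-20 h in some runs) at 37° C the cells were lysed, and luciferase luminescence was read on a luminometer, in triplicate.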

BALB/c mice = test: In vivo mRNA delivery in mice with DNPs, whole-body bioluminescence imaging (IVIS)
lung = test: In vivo mRNA delivery, IVIS imaging of organs: lung; set-up: species or system mice; key to Organs with luminescence: lung: strong: Strong meant the luminescence intensity in that organ was relatively high, compared to other organs; weak: Weak meant the luminescence intensity in that organ was relatively low, compared to other organs; details: Table 17; mice, IVIS, 4-6 h after injection; intensity relative to other organs
liver = test: In vivo mRNA delivery, IVIS imaging of organs: liver; set-up: species or system mice; key to Organs with luminescence: liver: strong: Strong meant the luminescence intensity in that organ was relatively high, compared to other organs; weak: Weak meant the luminescence intensity in that organ was relatively low, compared to other organs; details: Table 17; mice, IVIS, 4-6 h after injection; intensity relative to other organs
[1] = Stability of DNPs by DLS after storage at 5° C.; format: physicochemical; set-up: key: Excellent: the original sizes and distribution types remained almost the same after storage; Good: the original sizes and distribution types changed slightly (size difference was less than 100 nm) or the original size remained almost the same but the DLS curve showed more size distributions after storage
Procedure: The stability of the DNPs as assayed by DLS. All the samples are prepared in acetate buffer. The stabilities of the constructs were ranked: Excellent (in bold)—the original sizes and distribution remains almost the same after storage; Good—the original relatively big sizes became smaller or broad size distribution became narrower; Not stable—the original relatively big sizes or broad size distribution remained almost the similar level, or the original relatively small sizes became bigger or narrow size distribution became broader.

[2] = Table 20, nonsymmetric IAJDs and MC3-Luc-mRNA

CCCCCCCCCCCCCCCOc1cc(COC(=O)CCCN2CCN(C)CC2)cc(OCCCCCCCCCCCCCC)c1 [IAJD 147, 3-(Pentadecyloxy)-5-(tetradecyloxy)benzyl 4-(4-methylpiperazin-1-yl)butanoate]
Luminescence (HEK293T cells): 5,844
In vivo activity (total flux, p/s) (BALB/c mice; Table 19, nonsymmetric IAJDs): 9.24 × 10^6 p/s
Organs with luminescence: lung (lung): Lung (weak),
Organs with luminescence: liver (liver): liver (weak),
Ranking of stability ([1]; after 19 days at 5° C.): Excellent

CCCCCCCCCCCCCCCOc1cc(COC(=O)CCCN2CCN(CCO)CC2)cc(OCCCCCCCCCCCCCC)c1 [IAJD 148, 3-(Pentadecyloxy)-5-(tetradecyloxy)benzyl 4-(4-(2-hydroxyethyl)piperazin-1-yl)butanoate]
Luminescence (HEK293T cells): 139,420
In vivo activity (total flux, p/s) (BALB/c mice; Table 19, nonsymmetric IAJDs): 6.33 × 10^7 p/s
Organs with luminescence: lung (lung): Lung (weak),
Organs with luminescence: liver (liver): liver (weak),
Ranking of stability ([1]; after 19 days at 5° C.): Good

CCCCCCCCCCCCCCCCOc1cc(COC(=O)CCCN2CCN(C)CC2)cc(OCCCCCCCCCCCCCCC)c1 [IAJD 149, 3-(Hexadecyloxy)-5-(pentadecyloxy)benzyl 4-(4-methylpiperazin-1-yl)butanoate]
Luminescence (HEK293T cells): 149,935
In vivo activity (total flux, p/s) (BALB/c mice; Table 19, nonsymmetric IAJDs): 2.26 × 10^7 p/s
Organs with luminescence: lung (lung): Lung (weak),
Organs with luminescence: liver (liver): liver (weak),
Ranking of stability ([1]; after 19 days at 5° C.): Excellent

CCCCCCCCCCCCCCCCOc1cc(COC(=O)CCCN2CCN(CCO)CC2)cc(OCCCCCCCCCCCCCCC)c1 [IAJD 150, 3-(Hexadecyloxy)-5-(pentadecyloxy)benzyl 4-(4-(2-hydroxyethyl)piperazin-1-yl)butanoate]
Luminescence (HEK293T cells): 134,225
In vivo activity (total flux, p/s) (BALB/c mice; Table 19, nonsymmetric IAJDs): 3.47 × 10^7 p/s
Organs with luminescence: lung (lung): Lung (weak),
Organs with luminescence: liver (liver): liver (weak),
Ranking of stability ([1]; after 19 days at 5° C.): Excellent

CCCCCCCCCCCCCCCCCOc1cc(COC(=O)CCCN2CCN(C)CC2)cc(OCCCCCCCCCCCCCCC)c1 [IAJD 151, 3-(Heptadecyloxy)-5-(pentadecyloxy)benzyl 4-(4-methylpiperazin-1-yl)butanoate]
Luminescence (HEK293T cells): 9,310
In vivo activity (total flux, p/s) (BALB/c mice; Table 19, nonsymmetric IAJDs): 3.12 × 10^7 p/s
Organs with luminescence: lung (lung): Lung (weak),
Organs with luminescence: liver (liver): liver (weak),
Ranking of stability ([1]; after 35 days at 5° C.): Excellent

CCCCCCCCCCCCCCCCCCOc1cc(COC(=O)CCCN2CCN(C)CC2)cc(OCCCCCCCCCCCCCCC)c1 [IAJD 153, 3-(Octadecyloxy)-5-(pentadecyloxy)benzyl 4-(4-methylpiperazin-1-yl)butanoate]
Luminescence (HEK293T cells): 8,860
In vivo activity (total flux, p/s) (BALB/c mice; Table 19, nonsymmetric IAJDs): 7.33 × 10^7 p/s
In vivo activity (total flux, p/s) (BALB/c mice; [2]): 7.33 × 10^7 p/s
Organs with luminescence: lung (lung): Lung (weak),
Organs with luminescence: liver (liver): liver (strong),
Ranking of stability ([1]; after 35 days at 5° C.): Excellent

CCCCCCCCCCCCCCCCCCOc1cc(COC(=O)CCCN2CCN(CCO)CC2)cc(OCCCCCCCCCCCCCCC)c1 [IAJD 154, 3-(Octadecyloxy)-5-(pentadecyloxy)benzyl 4-(4-(2-hydroxyethyl)piperazin-1-yl)butanoate]
Luminescence (HEK293T cells): 17,871
In vivo activity (total flux, p/s) (BALB/c mice; Table 19, nonsymmetric IAJDs): 2.39 × 10^7 p/s
In vivo activity (total flux, p/s) (BALB/c mice; [2]): 2.39 × 10^7 p/s
Organs with luminescence: lung (lung): Lung (weak),
Organs with luminescence: liver (liver): liver (weak),
Ranking of stability ([1]; after 35 days at 5° C.): Excellent

CCCCCCCCCCCCCOc1cc(COC(=O)CCCN2CCN(C)CC2)cc(OCC(CC)CCCC)c1 (centres unmarked) [IAJD 161, 3-((2-Ethylhexyl)oxy)-5-(tridecyloxy)benzyl 4-(4-methylpiperazin-1-yl)butanoate]
Luminescence (HEK293T cells): 128
In vivo activity (total flux, p/s) (BALB/c mice; Table 19, nonsymmetric IAJDs): 8.48 × 10^7 p/s
Organs with luminescence: lung (lung): Lung (weak),
Organs with luminescence: liver (liver): liver (strong),
Ranking of stability ([1]; after 21 days at 5° C.): Excellent

CCCCCCCCCCCCCOc1cc(COC(=O)CCCN2CCN(CCO)CC2)cc(OCC(CC)CCCC)c1 (centres unmarked) [IAJD 162, 3-((2-Ethylhexyl)oxy)-5-(tridecyloxy)benzyl 4-(4-(2-hydroxyethyl)piperazin-1-yl)butanoate]
Luminescence (HEK293T cells): 222,235
In vivo activity (total flux, p/s) (BALB/c mice; Table 19, nonsymmetric IAJDs): 2.03 × 10^8 p/s
In vivo activity (total flux, p/s) (BALB/c mice; [2]): 2.03 × 10^8 p/s
Organs with luminescence: lung (lung): Lung (weak),
Organs with luminescence: liver (liver): liver (weak),
Ranking of stability ([1]; after 21 days at 5° C.): Excellent

CCCCCCCCCCCCCCOc1cc(COC(=O)CCCN2CCN(C)CC2)cc(OCCCCCCCCCCCCC)c1 [IAJD 171, 3-(Tetradecyloxy)-5-(tridecyloxy)benzyl 4-(4-methylpiperazin-1-yl)butanoate]
Luminescence (HEK293T cells): 1,436
In vivo activity (total flux, p/s) (BALB/c mice; Table 19, nonsymmetric IAJDs): 7.68 × 10^7 p/s
In vivo activity (total flux, p/s) (BALB/c mice; [2]): 7.68 × 10^7 p/s
Organs with luminescence: lung (lung): Lung (weak),
Organs with luminescence: liver (liver): liver (strong),
Ranking of stability ([1]; after 21 days at 5° C.): Excellent

CCCCCCCCCCCCCCOc1cc(COC(=O)CCCN2CCN(CCO)CC2)cc(OCCCCCCCCCCCCC)c1 [IAJD 172, 3-(Tetradecyloxy)-5-(tridecyloxy)benzyl 4-(4-(2-hydroxyethyl)piperazin-1-yl)butanoate]
Luminescence (HEK293T cells): 166,377
In vivo activity (total flux, p/s) (BALB/c mice; Table 19, nonsymmetric IAJDs): 6.82 × 10^7 p/s
Organs with luminescence: lung (lung): Lung (weak),
Organs with luminescence: liver (liver): liver (weak),
Ranking of stability ([1]; after 14 days at 5° C.): Excellent

CCCCCCCCCCCCCCCCOc1cc(COC(=O)CCCN2CCN(C)CC2)cc(OCCCCCCCCCCCCC)c1 [IAJD 173, 3-(Hexadecyloxy)-5-(tridecyloxy)benzyl 4-(4-methylpiperazin-1-yl)butanoate]
Luminescence (HEK293T cells): 2,302
In vivo activity (total flux, p/s) (BALB/c mice; Table 19, nonsymmetric IAJDs): 1.23 × 10^8 p/s
In vivo activity (total flux, p/s) (BALB/c mice; [2]): 1.23 × 10^8 p/s
Organs with luminescence: lung (lung): Lung (weak),
Organs with luminescence: liver (liver): liver (strong),
Ranking of stability ([1]; after 21 days at 5° C.): Good

CCCCCCCCCCCCCCCCCCOc1cc(COC(=O)CCCN2CCN(C)CC2)cc(OCCCCCCCCCCCCC)c1 [IAJD 177, 3-(Octadecyloxy)-5-(tridecyloxy)benzyl 4-(4-methylpiperazin-1-yl)butanoate]
Luminescence (HEK293T cells): 4,343
In vivo activity (total flux, p/s) (BALB/c mice; Table 19, nonsymmetric IAJDs): 9.18 × 10^7 p/s
In vivo activity (total flux, p/s) (BALB/c mice; [2]): 9.18 × 10^7 p/s
Organs with luminescence: lung (lung): Lung (weak),
Organs with luminescence: liver (liver): liver (strong),
Ranking of stability ([1]; after 21 days at 5° C.): Excellent

CCCCCCCCCCCCCCCCCCOc1cc(COC(=O)CCCN2CCN(CCO)CC2)cc(OCCCCCCCCCCCCC)c1 [IAJD 178, 3-(Octadecyloxy)-5-(tridecyloxy)benzyl 4-(4-(2-hydroxyethyl)piperazin-1-yl)butanoate]
Luminescence (HEK293T cells): 235,419
In vivo activity (total flux, p/s) (BALB/c mice; Table 19, nonsymmetric IAJDs): 4.05 × 10^8 p/s
In vivo activity (total flux, p/s) (BALB/c mice; [2]): 4.05 × 10^8 p/s
total flux luminescence (BALB/c mice; mice, in vivo Luc-mRNA transfection): 4.05×10^8 p/s
in vivo activity, times higher than symmetric IAJD with the same headgroup (BALB/c mice; nonsymmetric vs symmetric alkyl chains (178 vs 99 (18/18))): 90.2 times
in vivo activity, times lower than of MC3 (BALB/c mice; total flux luminescence vs MC3): 4.2 times
Organs with luminescence: lung (lung): Lung (weak),
Organs with luminescence: liver (liver): liver (weak),
Ranking of stability ([1]; after 21 days at 5° C.): Excellent
